Nine molecules from patent US20260234543A1, “MICROORGANISMS AND METHODS FOR REDUCING BY-PRODUCTS” (Genomatica, Inc., priority 2023, published 2026) can be followed below.

The subject of experiment [1] is acyl-CoA synthetase (ACS) (SEQ ID NO: 1). The experiment can be described thus: ACS activity on substrates of various chain lengths (enzymatic coupled assay for detection of AMP). In kind it is biochemical, Ruegeria pomeroyi. Particulars: 5 mM substrate, pH 7.5; for Activity: 250 μM CoA, 1 mM ATP. The method, then:
Purified acyl-CoA synthetase (ACS) (GenBank Accession No. WP_011046428.1; see, SEQ ID NO: 1) was assayed for activity on a range of substrates of various chain lengths. The substrates tested, which were conjugate bases (or carboxylates) of C2-C8 carboxylic acids, included acetate (C2), acetoacetate (C4), butyrate (C4), (R)- and(S)-3-hydroxybutryate ((R)-3-HB and(S)-3HB; C4), succinate (C4), hexanoate (C6), adipate (C6), 6-aminocaproic acid (6ACA; C6), and octanoate (C8).
An enzymatic coupled assay for detection of AMP, which is a co-product of the synthetase/ligase enzymatic reaction catalyzed by the ACS/CoA ligase, was used. The coupling enzymes used were adenylate kinase, pyruvate dehydrogenase, and lactate dehydrogenase, which catalyze reactions resulting in the oxidation of 2 NADH molecules per molecule of AMP produced by the ACS/CoA ligase enzymatic reaction. The coupling reagents for AMP detection were phospho (enol) pyruvate and NADH. The ACS/CoA ligase enzymatic reactions were followed by monitoring NADH oxidation over time, by measuring absorbance at 340 nm.
Reactions were set up in 96-well absorbance plates, in aqueous buffer at pH 7.5, and 5 mM of conjugate base substrate, 250 μM of Coenzyme A (CoA), 1 mM of ATP, 5 mM of MgCl2, 1 mM of phospho (enol) pyruvate, 500 μM of NADH, and non-rate limiting concentrations of the three coupling enzymes (adenylate kinase, pyruvate dehydrogenase, and lactate dehydrogenase), were added for each reaction. The ACS enzyme was added at a concentration that was appropriate for measuring a linear change on absorbance over up to 20 minutes. For example, 100 nM of ACS was added for the reactions with butyrate or 3-HB as the substrates. Negative control reactions omitted the substrate (conjugate base), the CoA, or the ACS enzyme.

Experiment [2] relates to CAR enzyme (SEQ ID NO: 3). The experiment can be described thus: In vitro CAR activity for conversion of 3HB to 3HB-Ald (NADPH absorbance at 340 nm). It counts as biochemical, Mycobacterium avium. Particulars: for CAR Activity: 1 μM CAR, 0.5 mM NADPH, 1 mM ATP. The method, then: In vitro CAR activity for the conversion of 3HB to 3HB—Ald was determined by direct measurement of the decrease in NADPH concentration, by measuring NADPH absorbance at 340 nm over time. The reactions were carried out in 96-well absorbance plates, and varying concentrations of 3HB substrate (see, TABLE 8 below), 0.5 mM of NADPH, 1 mM of ATP, 5 mM of MgCl2, and 1 μM of CAR enzyme (see, SEQ ID NO: 3) were added. A negative control reaction was included, in which addition of 3HB substrate was omitted. CAR activity was measured as μM of NADPH oxidized per minute per μM of CAR enzyme.

`C[C@@H](O)CC(=O)O` [(R)-3HB, (3R)-hydroxybutyrate] gave an Activity in experiment [1] of 322 μM AMP/min/μM ACS.
Take `C[C@H](O)CC(=O)O` [(S)-3HB, (3S)-hydroxybutyrate]: the Activity in experiment [1] was determined as 222 μM AMP/min/μM ACS.
As for `CC(=O)O` [Acetate], in experiment [1], the Activity was 38 μM AMP/min/μM ACS and the “ACS activity on substrate (in words)” value is reported as “exhibits activity”.
On to `CC(=O)CC(=O)O` [Acetoacetate], for which, in experiment [1], the Activity is on record as 34 μM AMP/min/μM ACS and the “ACS activity on substrate (in words)” value was “exhibits activity”.
Turning to `O=C(O)CCCCC(=O)O` [Adipate, adipate], in experiment [1], the Activity result is “No activity”.
As for `CCCCCCCC(=O)O` [Octanoate, octanoate], the Activity entry in experiment [1] is “No activity”.
For the molecule `CC(O)CC(=O)O` (stereo not drawn) [Strain 3HB, 3-hydroxybutyrate], the “ACS activity on substrate (in words)” value in experiment [1] is recorded as “has activity on both the (R) and(S) forms”. For the same molecule, the “CAR activity as a function of 3HB concentration (in words)” value in experiment [2] (0.78125-50 mM 3HB) was “CAR activity increases as the concentration of 3HB substrate increases”. Further, the “CAR Activity” value is 0.47 μM NADPH oxidized/min/μM CAR in experiment [2] (3HB substrate 0.78125 mM); 1.30 μM NADPH oxidized/min/μM CAR in experiment [2] (3HB substrate 1.5625 mM); 2.61 μM NADPH oxidized/min/μM CAR in experiment [2] (3HB substrate 3.125 mM); 4.24 μM NADPH oxidized/min/μM CAR in experiment [2] (3HB substrate 6.25 mM); 5.87 μM NADPH oxidized/min/μM CAR in experiment [2] (3HB substrate 12.5 mM); 8.81 μM NADPH oxidized/min/μM CAR in experiment [2] (3HB substrate 25 mM). For the same molecule, the “CAR Activity” value in experiment [2] (3HB substrate 50 mM) is 10.25 μM NADPH oxidized/min/μM CAR.
Consider `NCCCCCC(=O)O` [Strain 6ACA, 6-aminocaproic acid], for which, in experiment [1], the Activity was 0.015 μM AMP/min/μM ACS and the “ACS activity on substrate (in words)” value is recorded as “exhibits activity”.
On the same counts, the results for `O=C(O)CCC(=O)O` [Succinate, succinate] are 0.06 μM AMP/min/μM ACS and “exhibits activity”.
